Results: patent publication US20220096650A1 (Glaxosmithkline Intellectual Property Development Limited, priority 2019, published 2022)

Experiments:
[1] = tested on: CD4 and CD8 T cells in PBMC; assay: PBMC T cell activation assay (anti-CD3/anti-CD28 stimulation), activation markers by flow cytometry; format: cell-based, human; conditions: 24 and 72 hrs, 30, 3 and 0.3 μg/mL
From the text: T cells can be activated through the engagement of the T cell receptor (TCR) and co-stimulatory molecules expressed on the cell surface. […] Furthermore, upon activation, T cells produce cytokines such as IFNγ and IL-4. The effect of BCMA ADC on IFNγ and IL-4 productions in stimulated T cells was also studied. These experiments can provide data on the effect of BCMA ADC on T cells activation and function. In addition, proliferation of human CD4+ and CD8+ T cells upon stimulation in the presence of BCMA ADC was also evaluated. Human blood was obtained from the blood donor procurement program at GlaxoSmithKline. Peripheral blood mononuclear cells (PBMCs) were isolated from human whole blood by Ficoll density gradient centrifugation (GE Healthcare). Anti-human CD3 antibody (eBioscience, catalog #16-0037-85, clone OKT3) diluted with coating buffer (Biolegend, catalog #421701) was coated on 96 well flat-bottom plate overnight.
In this study, BCMA ADC treatment and PBMC activation occurred concurrently and the effects were monitored at 24 and 72 hrs. […] Immunofluorescence analysis was performed on a FACS CANTO II flow cytometer (BD Biosciences) and analyzed with DIVA software (BD Biosciences). Flow cytometry was used to monitor the percentage of CD4 or CD8 cells that express a given marker, and the mean fluorescence intensity (MFI) of this maker in CD4 or CD8 cells. […]

[2] = tested on: Dendritic cells co-cultured with BCMA ADC treated NCI-H929 cells; assay: IL-10 and IL-12p70 in co-culture supernatants (MSD kits); format: cell-based, human
Description: Day 7 iDCs were co-cultured with J6M0 ADC enhanced antigen binding protein treated NCI-H929 cells at 1:1 ratio for 24 hours on 96 well plates. All cells were counted at the initiation of the co-culture and diluted with X-Vivo-15 media to a concentration of 7.5×10^5 cells/mL. 7.5×10^4 cells/well (100 μl) each of iDCS and pre-treated NCI-H929 cells were combined in each well on a 96 well plate. Co-cultured cells were incubated 37° C./5% CO2 for 24 hours. A flow cytometry panel consisting of CD1a, CD11c, CD40, CD80, CD83, CD86, HLA-DR, & CD14 was used to assess fresh, FcR blocked Dendritic Cell differentiation and maturation on the FACS Canto II. […]
Data analysis was performed in Flow Jo v7.6.5 for the flow cytometry panel and used either CD11c+ or HLA-DR+ cell gating to distinguish the dendritic Cells from the tumor cells. […] Data for the secreted IL-10 and IL-12p70 from supernatants in the co-culture assays w analyzed in MSD Discovery Workbench v4.0.12.
FIGS. 3A and 3B: IL-10 decreased in the supernatants from co-cultured Dendritic cells from two healthy human donors and BCMA ADC treated NCI-H929 Multiple Myeloma cells. IL-10 was measured in (a) untreated (no BCMA ADC) Dendritic cells alone and (b-f) Dendritic cells that were co-cultured with (b) untreated (no BCMA ADC), (c) IgG Control (10 μg/mL), (d) 0.1, (e) 1 and (f) 10 μg/mL BCMA ADC treated (48 hours) NCI-H929 cells. […]

GSK2857916
effect on anti-CD3/anti-CD28 stimulated CD4 and CD8 T cell activation [1]: minimal effect
IL-10 production ([2]; 0.1, 1, 10 μg/mL BCMA ADC): significant inhibitory effect
IL-12p70 ([2]; all conditions): below the detection limit
